pKd: −log10 of the molar value. “Also recorded” adds a separate entry of the source. Values belong to the molecule of their own block, whether it stands above or below them.
Tests used:
[1] = system: RAW264.7 cells (parental); experiment: qRT-PCR of crotonate-responsive genes, parental cells; assay type: cell-based, mouse; conditions: crotonate pre-treatment before LPS
[2] = system: histone crotonylation (H3K18cr) / crotonyl-CoA; conditions: ref Sabari et al., 2015, cited from earlier work
[3] = system: FLAG-AF9 (WT) recruitment in RAW264.7 cells; experiment: FLAG-ChIP-qPCR, FLAG-AF9; assay type: cell-based, mouse; conditions: increasing concentrations of crotonate, then LPS; Rsad2, Il6, Ifit1, Cmpk2, Gbp2
[4] = system: RAW264.7 cells, AF9KO + F59A; experiment: qRT-PCR, AF9 KO with F59A addback; assay type: cell-based, mouse; conditions: crotonate pre-treatment before LPS
[5] = system: RAW264.7 cells, AF9KO + WT; experiment: qRT-PCR, AF9 KO with wild type AF9 addback; assay type: cell-based, mouse; conditions: crotonate pre-treatment before LPS
[6] = system: FLAG-AF9 (F59A) recruitment in RAW264.7 cells; experiment: FLAG-ChIP-qPCR, FLAG-AF9; assay type: cell-based, mouse; conditions: increasing concentrations of crotonate, then LPS; Rsad2, Il6, Ifit1, Cmpk2, Gbp2
[7] = system: RAW264.7 cells, AF9 KO; experiment: qRT-PCR of crotonate-responsive genes, AF9 knockout; assay type: cell-based, mouse; conditions: crotonate pre-treatment before LPS
[8] = system: AF9 recruitment to genes in RAW264.7 cells; experiment: FLAG-AF9 ChIP-seq in RAW264.7 cells; assay type: cell-based, mouse; conditions: 10mM crotonate pre-treatment then LPS
[9] = molecular target: second bromodomain of BRD3 (UniProt Q15059); experiment: ITC
[10] = molecular target: AF9 YEATS domain, wild type (UniProt P42568); experiment: ITC
UniProt P42568, sequence (P42568 1-138): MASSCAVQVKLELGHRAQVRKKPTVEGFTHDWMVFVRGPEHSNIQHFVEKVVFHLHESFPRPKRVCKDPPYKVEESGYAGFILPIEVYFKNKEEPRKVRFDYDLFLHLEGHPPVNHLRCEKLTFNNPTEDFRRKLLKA

UniProt Q15059, sequence (Q15059 307-416): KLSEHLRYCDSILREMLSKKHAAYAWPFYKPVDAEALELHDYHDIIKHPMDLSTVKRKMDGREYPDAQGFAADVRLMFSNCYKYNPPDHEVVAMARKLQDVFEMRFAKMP

fold reduced affinity against H3K18ac [9]: 38 fold
Molecule: H3K18bu peptide (acylation series of Figure 4C)

pKd [10]: 3.30
Molecule: histone H3_(1–15)K9su peptide (from UniProt P68431 2-16)

Second part, the molecule before the results:

Molecule: C/C=C/C(=O)O [crotonate]
expression of Ccl3 (non-responsive gene) [1]: unaffected by crotonate pre-treatment
effect on crotonyl-CoA and acetyl-CoA ([2]; cellular concentrations): selectively increases cellular concentrations of crotonyl-CoA, the high-energy donor of crotonyl, while leaving acetyl-CoA, the high-energy donor of acetyl, unaffected
effect on Kcr vs Kac [2]: specifically enhances Kcr, and does not significantly affect Kac
AF9 (WT) ChIP-qPCR signal [3]: AF9 signal increases with increasing concentrations of crotonate
rescue of crotonate response, AF9 (F59A) addback [4]: not mutant AF9 (F59A) rescued this reduction
rescue of crotonate response, wild type AF9 addback [5]: addback of wild type AF9 but not mutant AF9 (F59A) rescued this reduction
AF9 (F59A) ChIP-qPCR signal, crotonate [6]: the F59A mutant is unresponsive
crotonate response in AF9 KO cells [7]: significantly reduced response; also recorded: significantly reduced the crotonate response in our model system, but did not abolish it completely
FLAG-AF9 ChIP-seq signal ([8]; metagene analysis): FLAG-AF9 signal was higher with crotonate treatment only for crotonate responsive genes
mean fold-change in FLAG-AF9 RPKM, crotonate unresponsive genes ([8]; ± 1kb TSS, 233 genes): 0.92 fold

Molecule: H3K18pr peptide (acylation series of Figure 4C)
fold reduced affinity against H3K18ac [9]: 4 fold

Molecule: histone H3_(1–15)K9ac peptide (from UniProt P68431 2-16)
pKd [10]: 5.30
